Experimental data as given in the NIST ThermoML archive (doi:10.1016/j.jct.2004.07.031).
± gives the expanded uncertainty stated by the source.

Conditions: 298.15 K; 101.33 kPa; Crystal; PPMS instrument (Quantum Design)

Row | molar entropy | Compound
1 | 124.57 ± 5.6 J/K/mol | O=P([O-])([O-])[O-].[Gd+3] [gadolinium orthophosphate]
2 | 108.24 ± 4.9 J/K/mol | O=P([O-])([O-])[O-].[La+3] [lanthanum orthophosphate]
